The test system of test [1] is growth hormone deficient rats. The conditions noted are these: cited from earlier work.
The test system of a further test is human heart membranes. Description: binding of peptides on human heart membranes (displacement of radiolabelled peptide). The following applies: FIG. 1. The source says: The binding abilities of certain peptides according to the invention compared to conventional peptides on human heart membranes are shown in FIG. 1. […]
Peptide A is in accordance with the invention, while peptides B-F are comparative. As shown in the figure, peptide A provided inhibition (i.e., displacement) of ^125 I-Tyr-Ala-His-D-Mrp-Ala-Trp-D-Phe-Lys-NH2 in a proportion of about 75%, whereas peptides B-F only provided about 5 to less than 35%. The greater binding affinities for the peptides of the invention illustrate that these peptides directly operate on specific receptors of heart tissue to achieve normalization of cardiac pressure.

Where a SMILES comes first, the peptide text is derived from it. [ ]: non-standard residue; d: D form. dTrp(2-Me) = Cc1[nH]c2ccccc2c1C[C@@H](N)C(=O)O

Take `Cc1[nH]c2ccccc2c1C[C@@H](NC(=O)[C@@H](N)Cc1cnc[nH]1)C(=O)N[C@@H](C)C(=O)N[C@@H](Cc1c[nH]c2ccccc12)C(=O)N[C@H](Cc1ccccc1)C(=O)N[C@@H](CCCCN)C(N)=O` [Hexarelin, His-D-2-methyl-Trp-Ala-Trp-D-Phe-Lys-NH2] (H-H[dTrp(2-Me)]AW[dF]K-NH2): the “effect on worsening of cardiac dysfunction” value in test [1] is “reverse the worsening of cardiac dysfunction”.

For the molecule “[S,S-Spiro(Pro-Leu )]-D-Mrp-D-Trp-Phe-Lys-NH2 [peptide A]”, the “inhibition (i.e., displacement) of 125I-Tyr-Ala-His-D-Mrp-Ala-Trp-D-Phe-Lys-NH2” value in the test with human heart membranes was “about 75%”.
